Data set [1] has as its system human glioblastoma xenografts expressing EGFRvIII. As to conditions: co-treatment of cisplatin with AG1478; cited from earlier work.
Data set [2] addresses T1, c-Met receptor (Homo sapiens, UniProt P08581).
T1 construct: the U87MG cell line which expresses low levels of c-Met; endogenous in cells; host or cells: U87MG-derived U87H cells (human glioblastoma)
In words: Immunoblotting of c-Met receptor phosphorylation after kinase inhibitor treatment of U87H cells. The data set is classed as cell-based. The note with it: 1 h inhibitor dose escalation after 24-h serum starvation, Western blot. As to the method: For whole-cell extracts, cells were lysed in lysis buffer (20 mmol/L Tris-HCl, 150 mmol/L NaCl, 1 mmol/L EDTA, 1% Triton X-100, 2.5 mmol/L sodium PPi, 1 mmol/ ? glycerophosphate) containing protease and phosphatase inhibitors after the indicated treatment. Protein samples were separated on either 7.5% or 10% SDS-polyacrylamide gels and transferred onto polyvinylidene difluoride membrane. Blots were developed with supersignal West Femto substrate (Pierce) after incubation with primary and secondary antibodies. […] Cells were then lysed as described above for either immunoblotting or mass spectrometric analysis.
(In general: In western blotting, separated proteins are transferred to a membrane and probed.)

For data set [3], the system named is U87H cells. Kind of data set: Cell viability assay (WST-1). The note with it: for cell viability, combination with cisplatin: increasing doses of inhibitor with constant 10 μg/ml cisplatin, versus cisplatin only control; for cell viability, single agent: single treatment, 72 h after 24-h serum starvation; for cytotoxicity of combination treatment: 10 μM c-Met inhibitor plus 5 μM AG1478, P<0.001 (SU11274), P<0.0001 (PHA665752); for cell viability, combined dosing with AG1478: c-Met inhibitor dose-response plus constant 5 μM AG1478, 72 h. The data set is classed as cell-based, human. Background: Tetrazolium assays rely on reduction of a dye to a coloured formazan, in cell work by metabolically active cells.

In data set [4] the target is T1, c-Met receptor. Kind of data set: Mass spectrometric phosphotyrosine analysis of SU11274 treated U87H cells (c-Met). The data set is classed as cell-based. The note with it: mass spectrometry.
The target in a further data set is T2, EGFRvIII receptor (Homo sapiens, UniProt P00533, DELINS30-297G).
T2 construct: expressed in transfected cells; host or cells: U87MG human glioblastoma cells (U87H population), retroviral transduction with pLERNL
In words: Mass spectrometric phosphotyrosine analysis of SU11274 treated U87H cells (EGFRvIII sites). The class given is cell-based. As to conditions: mass spectrometry (data not shown). As to the method:
U87MG cells expressing titrated levels of EGFRvIII were maintained in DMEM medium supplemented with 10% FBS. 1.5 million cells per 10 cm plate were washed with PBS and incubated for 24 hours in serum-free media. Cells were lysed with 8 M urea supplemented with 1 mM sodium orthovanadate (Sigma-Aldrich). For each biological replicate, three 10 cm plates were pooled together. The samples were then further processed and labeled with the iTRAQ reagent as previously described (Zhang et al. (2005) Mol Cell Proteom 4:1240-1250). Peptide immunoprecipitation was performed as previously described (Zhang et al. (2005) Mol Cell Proteom 4:1240-1250), with the following exceptions: 10 μg of protein G Plus-agarose beads (Calbiochem) were incubated with 12 μg of anti-phosphotyrosine antibody (pTyr100 (Cell Signaling Technology) in 200 μl of IP buffer (100 mM Tris, 100 mM NaCl, 1% NP-40, pH 7.4) for 8 hr at 4° C. Immobilized metal affinity chromatography (IMAC) was performed as previously described to remove non-specific non-phosphorylated peptides and eluted phosphopeptides were analyzed by ESI LC-MS/MS on a QqT of (QSTAR XL Pro, Applied Biosystems) operated in IDA mode, as previously described (Zhang et al. (2005) Mol Cell Proteom 4:1240-1250).
MS/MS spectra were extracted and searched against human protein database (NCBI) using ProQuant (Applied Biosystems) as recommended by the manufacturer. […]

For data set [5], the system named is U87H cells. In words: Apoptosis assay (caspase 3/7 activity, Apo-ONE). The class given is cell-based, human. As for the experimental part: 10,000 cells were seeded per well in a 96 well plate. […] After 24 hours of drug treatment, caspase 3/7 activity was measured using Apo-ONE Homogeneous Caspase-3/7 Assay (Promega), following the manufacturer's recommendations.

T1 sequence (P08581 25-1390): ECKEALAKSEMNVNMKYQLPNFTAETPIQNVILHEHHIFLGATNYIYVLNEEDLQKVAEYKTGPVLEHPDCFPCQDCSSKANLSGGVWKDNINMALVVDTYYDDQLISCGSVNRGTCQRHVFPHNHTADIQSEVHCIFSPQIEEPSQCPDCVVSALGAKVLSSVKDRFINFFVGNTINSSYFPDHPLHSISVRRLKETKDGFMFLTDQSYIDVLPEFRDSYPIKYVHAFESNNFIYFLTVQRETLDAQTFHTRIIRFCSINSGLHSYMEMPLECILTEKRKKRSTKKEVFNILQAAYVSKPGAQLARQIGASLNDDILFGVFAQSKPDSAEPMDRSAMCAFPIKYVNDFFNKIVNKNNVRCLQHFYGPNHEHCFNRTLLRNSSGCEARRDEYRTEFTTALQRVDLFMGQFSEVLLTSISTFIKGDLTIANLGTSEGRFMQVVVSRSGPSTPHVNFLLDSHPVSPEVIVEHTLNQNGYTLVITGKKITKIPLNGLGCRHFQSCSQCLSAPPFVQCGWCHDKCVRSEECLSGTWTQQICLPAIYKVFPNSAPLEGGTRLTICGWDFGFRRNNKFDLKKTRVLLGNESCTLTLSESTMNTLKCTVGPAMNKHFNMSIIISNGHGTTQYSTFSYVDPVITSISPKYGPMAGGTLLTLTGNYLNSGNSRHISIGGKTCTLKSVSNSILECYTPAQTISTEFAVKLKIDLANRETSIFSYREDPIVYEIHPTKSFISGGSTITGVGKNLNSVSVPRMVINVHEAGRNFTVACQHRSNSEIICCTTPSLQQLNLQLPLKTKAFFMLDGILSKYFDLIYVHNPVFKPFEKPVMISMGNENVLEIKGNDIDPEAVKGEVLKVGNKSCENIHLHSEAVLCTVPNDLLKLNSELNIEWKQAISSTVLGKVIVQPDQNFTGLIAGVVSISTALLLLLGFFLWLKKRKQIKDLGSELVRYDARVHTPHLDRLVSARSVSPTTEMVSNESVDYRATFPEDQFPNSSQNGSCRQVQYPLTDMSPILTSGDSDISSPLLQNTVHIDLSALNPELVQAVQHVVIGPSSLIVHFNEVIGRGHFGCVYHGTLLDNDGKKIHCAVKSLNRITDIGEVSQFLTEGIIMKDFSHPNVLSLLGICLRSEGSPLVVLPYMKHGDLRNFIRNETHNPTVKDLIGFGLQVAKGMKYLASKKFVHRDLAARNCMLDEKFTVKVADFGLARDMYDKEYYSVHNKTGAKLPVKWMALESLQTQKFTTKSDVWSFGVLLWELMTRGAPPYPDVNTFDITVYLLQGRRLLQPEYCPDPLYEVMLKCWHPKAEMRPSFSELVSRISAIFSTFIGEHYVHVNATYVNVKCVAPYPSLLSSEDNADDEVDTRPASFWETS

With `COc1cc2ncnc(Nc3cccc(Cl)c3)c2cc1OC` [AG1478], in data set [1], the “sensitisation of xenografts to cisplatin” value was “sensitized to cisplatin”. Also, the “c-Met receptor phosphorylation (Y1230/Y1234/Y1235)” value on c-Met receptor [2] was “concomitant decrease”. The “cell viability, combination with cisplatin” value in the data set on U87H cells [3] was “similar”. Besides, the “cell viability, single agent” value in the data set with U87H cells [3] (WST-1) is “only decreased cell viability at very high inhibitor doses”.
`Cc1[nH]c(/C=C2\C(=O)Nc3ccc(S(=O)(=O)Cc4c(Cl)cccc4Cl)cc32)c(C)c1C(=O)N1CCC[C@@H]1CN1CCCC1` [PHA665752]: the “cytotoxicity of combination treatment” value in the data set on U87H cells [3] is listed as “significantly enhanced cytotoxicity”. Moreover, the “cell viability, combined dosing with AG1478” value in the data set on U87H cells [3] (WST-1) is on record as “synergistically sensitize”.
In the case of `Cc1[nH]c(/C=C2\C(=O)Nc3ccc(S(=O)(=O)N(C)c4cccc(Cl)c4)cc32)c(C)c1C(=O)N1CCN(C)CC1` [SU11274], on c-Met receptor [4], the “specificity for the kinase activity of the c-Met receptor” value was “exquisitely specific”. In addition, on EGFRvIII receptor, the “EGFRvIII receptor tyrosine phosphorylation on multiple sites” value was “does not affect”. In addition, in the data set on U87H cells [5] (10 μM SU11274 plus 5 μM AG1478, 24 h after 24-h serum starvation, P<0.01), the “apoptosis (caspase 3/7 cleavage), combination treatment” value is given as “significantly enhanced apoptosis”. Besides, in the data set with U87H cells [5] (SU11274 with constant 5 μM AG1478), the “cell death, combined dosing with AG1478” value is on record as “increase in cell death”. Further, the “c-Met receptor phosphorylation (Y1230/Y1234/Y1235)” value at c-Met receptor [2] is on record as “dose dependent decrease”. In the data set on U87H cells [3], the “cytotoxicity of combination treatment” value is “significantly enhanced cytotoxicity” and the “cell viability, combination with cisplatin” value was “dramatic decrease in cell viability”. Further, in the data set with U87H cells [3] (WST-1), the “cell viability, combined dosing with AG1478” value is given as “synergistic decrease in cell viability” and the “cell viability, single agent” value is reported as “only decreased cell viability at very high inhibitor doses”.
With `N.N.[Cl][Pt][Cl]` [cisplatin], in the data set with U87H cells [3] (10 μg/ml cisplatin over 72 h after 24-h serum starvation, WST-1), the “cell viability, cisplatin only” value is “resistant”.

(Values after patent publication US20090042906A1, “METHODS FOR TREATING CANCERS ASSOCIATED WITH CONSTITUTIVE EGFR SIGNALING” (Massachusetts Institute of Technology, priority 2007, published 2009).)
